PubChem BioAssay AID1963847 (Molecular Pharmacology Branch, DTP, NCI, 2024)

Test system: 415267-285-R-J2-PDC complex spheroid viability
Test: Anticancer human tumor 415267-285-R-J2-PDC patient-derived breast carcinoma cell line growth inhibition [POLQ]
Settings: for IC50: curve of first compound; for viability, T/C: stronger effect = lower value
Outline: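 Complex spheroid viability model combining PDC tumour cells with endothelial (HUVEC) and MSC stromal cells. Novobiocin, ART-558 or RP6685 were tested singly and in combination with standard and investigational anticancer drugs. Each was titrated in half-log steps from near clinical Cmax, or from 10 microM where Cmax was unknown.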

[1] = second compound 0.0316 µM, first compound 0.0316 µM
[2] = second compound 0.0316 µM, first compound 0.1 µM
[3] = second compound 0.0316 µM, first compound 0.316 µM
[4] = second compound 0.0316 µM, first compound 1 µM
[5] = second compound 0.0316 µM, first compound 3.16 µM
[6] = second compound 0.0316 µM, first compound 10 µM
[7] = second compound 0.1 µM, first compound 0.0316 µM
[8] = second compound 0.1 µM, first compound 0.1 µM
[9] = second compound 0.1 µM, first compound 0.316 µM
[10] = second compound 0.1 µM, first compound 1 µM
[11] = second compound 0.1 µM, first compound 3.16 µM
[12] = second compound 0.1 µM, first compound 10 µM
[13] = second compound 0.316 µM, first compound 0.0316 µM
[14] = second compound 0.316 µM, first compound 0.1 µM
[15] = second compound 0.316 µM, first compound 0.316 µM
[16] = second compound 0.316 µM, first compound 1 µM
[17] = second compound 0.316 µM, first compound 3.16 µM
[18] = second compound 0.316 µM, first compound 10 µM
[19] = second compound 1 µM, first compound 0.0316 µM
[20] = second compound 1 µM, first compound 0.1 µM
[21] = second compound 1 µM, first compound 0.316 µM
[22] = second compound 1 µM, first compound 1 µM
[23] = second compound 1 µM, first compound 3.16 µM
[24] = second compound 1 µM, first compound 10 µM
[25] = second compound 3.16 µM, first compound 0.0316 µM
[26] = second compound 3.16 µM, first compound 0.1 µM
[27] = second compound 3.16 µM, first compound 0.316 µM
[28] = second compound 3.16 µM, first compound 1 µM
[29] = second compound 3.16 µM, first compound 3.16 µM
[30] = second compound 3.16 µM, first compound 10 µM
[31] = second compound 10 µM, first compound 0.0316 µM
[32] = second compound 10 µM, first compound 0.1 µM
[33] = second compound 10 µM, first compound 0.316 µM
[34] = second compound 10 µM, first compound 1 µM
[35] = second compound 10 µM, first compound 3.16 µM
[36] = second compound 10 µM, first compound 10 µM
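Note: spheroids exposed to compounds for one week before readout.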
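Throughout, for viability, T/C: luminescence used as stand-in measure of viable cells; 100% = DMSO vehicle control viability.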

SMILES: COc1ccc([C@@H](O)c2cc(-c3ncnc4cc(N5CCOCC5)ccc34)c(F)cc2Cl)nn1 + Cc1cccc(N(C)C(=O)C2C(O)CCN2c2nc(C)cc(C(F)(F)F)c2C#N)c1
- IC50 (second compound 0.0316 µM): 7.65 µM
- IC50 (second compound 0.1 µM): 7.73 µM
- IC50 (second compound 0.316 µM): 7.44 µM
- IC50 (second compound 1 µM): 7.62 µM
- IC50 (second compound 3.16 µM): 7.22 µM
- IC50 (second compound 10 µM): 4.74 µM
- viability, T/C [1]: 89.5%
- viability, T/C [2]: 103%
- viability, T/C [3]: 98.9%
- viability, T/C [4]: 102%
- viability, T/C [5]: 74%
- viability, T/C [6]: 42.7%
- viability, T/C [7]: 93.9%
- viability, T/C [8]: 102%
- viability, T/C [9]: 110%
- viability, T/C [10]: 91%
- viability, T/C [11]: 82.1%
- viability, T/C [12]: 40.9%
- viability, T/C [13]: 99.3%
- viability, T/C [14]: 102%
- viability, T/C [15]: 98.5%
- viability, T/C [16]: 100%
- viability, T/C [17]: 81.3%
- viability, T/C [18]: 39%
- viability, T/C [19]: 99%
- viability, T/C [20]: 91.3%
- viability, T/C [21]: 92.7%
- viability, T/C [22]: 93.2%
- viability, T/C [23]: 69.4%
- viability, T/C [24]: 44%
- viability, T/C [25]: 93.1%
- viability, T/C [26]: 100%
- viability, T/C [27]: 98%
- viability, T/C [28]: 88.9%
- viability, T/C [29]: 75.5%
- viability, T/C [30]: 39.9%
- viability, T/C [31]: 101%
- viability, T/C [32]: 99.3%
- viability, T/C [33]: 94.5%
- viability, T/C [34]: 86%
- viability, T/C [35]: 59.7%
- viability, T/C [36]: 31.6%

SMILES: O=C(Nc1ccc(O)c(NS(=O)(=O)c2ccc(F)cc2)c1)c1ccc(-c2ccccc2)cc1 + Nc1ccc(C#CCN(C(=O)Cc2ncc(C(F)(F)F)cc2C(F)(F)F)c2ccc(F)cc2)nn1
- IC50 (second compound 0.0316 µM): > 10 µM
- IC50 (second compound 0.1 µM): > 10 µM
- IC50 (second compound 0.316 µM): > 10 µM
- IC50 (second compound 1 µM): > 10 µM
- IC50 (second compound 3.16 µM): > 10 µM
- IC50 (second compound 10 µM): > 10 µM
- viability, T/C [1]: 100%
- viability, T/C [2]: 97.3%
- viability, T/C [3]: 84.3%
- viability, T/C [4]: 107%
- viability, T/C [5]: 92.7%
- viability, T/C [6]: 78.2%
- viability, T/C [7]: 104%
- viability, T/C [8]: 99.1%
- viability, T/C [9]: 106%
- viability, T/C [10]: 86.1%
- viability, T/C [11]: 97.2%
- viability, T/C [12]: 61.6%
- viability, T/C [13]: 105%
- viability, T/C [14]: 102%
- viability, T/C [15]: 107%
- viability, T/C [16]: 94.9%
- viability, T/C [17]: 97.4%
- viability, T/C [18]: 71.5%
- viability, T/C [19]: 102%
- viability, T/C [20]: 90.8%
- viability, T/C [21]: 89.6%
- viability, T/C [22]: 95.3%
- viability, T/C [23]: 99.8%
- viability, T/C [24]: 66.2%
- viability, T/C [25]: 102%
- viability, T/C [26]: 103%
- viability, T/C [27]: 106%
- viability, T/C [28]: 97.8%
- viability, T/C [29]: 91.7%
- viability, T/C [30]: 75.7%
- viability, T/C [31]: 102%
- viability, T/C [32]: 99.9%
- viability, T/C [33]: 111%
- viability, T/C [34]: 89.5%
- viability, T/C [35]: 99.5%
- viability, T/C [36]: 59.5%
